# Values of other authors in paper PMC6304311 (Influenza and Other Respiratory Viruses, 2018).
# Where “and” joins values, the source holds several entries; their conditions need not be identical. Equal values may be shown once. Entries after “also recorded” stand apart in the source; their conditions may differ.
# Experiments:
# Settings in all cases: cited from earlier work
# [1] = tested on: seasonal influenza A(H1N1) viruses
# [2] = biological target: NA from influenza A(H1N1) virus isolates (Influenza A virus, UniProt C0LLZ0)
# [3] = tested on: Influenza A(H1N1)pdm09 H275Y‐resistant phenotype viruses
# [4] = biological target: NA from influenza B virus isolates (Influenza B virus, UniProt A0A1S5RAG6)
# influenza A(H3N2) = tested on: influenza A(H3N2)
# [5] = biological target: NA from influenza A(H3N2) virus isolates (Influenza A virus, UniProt V5P6L4)
# [6] = tested on: NA from influenza A(H1N1)pdm09 virus isolates
# [7] = read-out: IC50, resistant phenotype reference virus
smiles,measurement,setting,value
CCOC(=O)C1=C[C@@H](OC(CC)CC)[C@H](NC(C)=O)[C@@H](N)C1 [oseltamivir],frequency of resistance globally,[1],90%
same,phenotype of isolates,[1],phenotypically resistant
same,susceptibility phenotype of reference virus,[2],susceptible; also recorded: resistant
same,IC50,[2]; [7],93.2 nM
same,patients with H275Y‐resistant phenotype viruses after treatment,[3],2%
same,susceptibility phenotype of reference virus,[4],susceptible; also recorded: resistant
same,effect of I215V NA substitution on susceptibility,influenza A(H3N2),borderline reduction in susceptibility
same,frequency of resistance to inhibition,influenza A(H3N2),0.2% and 1.1%
same,susceptibility phenotype of reference virus,[5],susceptible; also recorded: resistant
same,IC50,[5]; [7],5.24 nM
same,susceptibility phenotype of reference virus,[6],susceptible; also recorded: resistant
same,IC50,[6]; [7],70.6 nM
CC(=O)N[C@H]1[C@H]([C@H](O)[C@H](O)CO)OC(C(=O)O)=C[C@@H]1N=C(N)N [zanamivir],effect of I215V NA substitution on susceptibility,influenza A(H3N2),borderline reduction in susceptibility
